Values quoted from earlier work in paper PMC5689474 (Amino acids, 2010).

Experiments:
[1] = after i.c.v. and i.t. administration; ref Lipkowski et al. 1987; Horan et al. 1993
[2] = molecular target: human δ-opioid receptor (Homo sapiens, UniProt P41143); conditions: read-out: Binding Kiδ; [3H]DPDPE; ±SEM; ref Lipkowski et al. (1999)
[3] = ref Horan et al. 1993; Yamazaki et al. 2001
[4] = test system: δ- and μ-opioid receptors; conditions: words; ref Lipkowski et al. 1987; Horan et al. 1993
[5] = molecular target: rat μ-opioid receptor (Rattus norvegicus, UniProt P33535); conditions: read-out: Binding Kiμ; [3H]DAMGO; ±SEM; ref Lipkowski et al. (1999)
Chain of rat μ-opioid receptor (P33535 whole entry): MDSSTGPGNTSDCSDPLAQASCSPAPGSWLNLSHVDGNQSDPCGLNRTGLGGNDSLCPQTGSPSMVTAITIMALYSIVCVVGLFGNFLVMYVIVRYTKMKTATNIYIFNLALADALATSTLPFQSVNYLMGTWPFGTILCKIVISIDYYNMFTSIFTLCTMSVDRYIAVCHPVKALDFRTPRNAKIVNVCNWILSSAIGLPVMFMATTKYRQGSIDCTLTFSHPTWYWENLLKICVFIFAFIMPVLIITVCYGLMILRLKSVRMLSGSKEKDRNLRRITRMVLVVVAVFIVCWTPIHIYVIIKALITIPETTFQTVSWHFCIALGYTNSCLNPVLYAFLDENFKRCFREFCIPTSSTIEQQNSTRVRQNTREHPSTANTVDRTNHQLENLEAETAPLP

[6] = molecular target: Mouse vas deferens (δ-opioid receptors); conditions: read-out: Functional bioactivity MVD (IC50); ±SEM; ref Lipkowski et al. (1999)

Chain of human δ-opioid receptor (P41143 whole entry): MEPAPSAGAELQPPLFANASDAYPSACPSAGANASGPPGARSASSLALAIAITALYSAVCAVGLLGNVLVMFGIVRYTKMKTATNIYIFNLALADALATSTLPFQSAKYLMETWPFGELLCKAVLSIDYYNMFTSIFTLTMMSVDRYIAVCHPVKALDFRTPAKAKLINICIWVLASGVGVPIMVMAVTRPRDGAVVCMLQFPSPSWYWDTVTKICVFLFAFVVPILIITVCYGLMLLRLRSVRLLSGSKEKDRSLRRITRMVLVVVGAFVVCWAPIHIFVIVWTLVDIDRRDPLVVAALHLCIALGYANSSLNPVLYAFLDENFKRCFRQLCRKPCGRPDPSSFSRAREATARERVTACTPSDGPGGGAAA

In the case of “Tyr-D-Ala-Gly-Phe-NH-NH\-Phe\-Gly\-D-Ala\-Tyr [Bph]”, the “potency compared with morphine” value [1] is listed as “significantly higher than morphine”, the Ki [2] is listed as 2.6 ± 0.4 nM and the “physical dependence compared with morphine” value [3] is listed as “less physical dependence than morphine”. For the same substance, the “affinity for both δ- and μ-receptors” value [4] was “highly affinity for both δ- and μ-receptors”, the Ki [5] was 1.4 ± 0.2 nM and the IC50 [6] was 27 ± 1.5 nM.
